Assay results as given in patent US6309679A, “Method of improving processes using pectinase enzymes with noble gases” (American Air Liquide, priority 1995, dated 2001).

Experiments:
Pectinase (EC 3.2.1.15) = assay: Pectinase/Pectin reaction gas run (spectrophotometric, 400 nm); assay type: biochemical, Aspergillus niger; conditions: maximum effect, percent change compared to air
Method: PECTINASE (EC 3.2.1.15) (P-9932)/PECTIN (P-9135) GAS RUN PROTOCOL
PURPOSE: Effect of Air, Ne, Ar, Kr, Xe, N2 and O2 on Pectinase/Pectin reaction at 10° C., 25° C. and 35° C. (one substrate concentration).
ENZYME: Pectinase (Sigma No. P-9932) from Aspergillus niger Solution in 25-45% glycerol (actual glycerol content on label)
Unit Definition: one unit will liberate 1.0 μmole of galacturonic acid from polygalacturonic acid per min at pH 4.0 at 25° C.
SUBSTRATE: Pectin (Sigma No. P-9135) from Citrus fruits
Soln A: 0.1 M Citric acid--sodium citrate, pH 4.0 at 25° C. Dissolve 7.6 g citric acid and 12.05 g sodium citrate in 1 liter of DI H2 O. Adjust pH to 4.0. pH25° C. =4.013
Soln B: 1% Pectin in DI H2 O Boil 100 ml DI H2 O. Add 1 g pectin, stir by hand. Cover, boil for 2 minutes, stir by hand, boil for an additional 1 minute. Remove from heat and let cool for 10 minutes.
Soln C: Pectinase (50 U/ml) in Soln A Dilute 43.5 ml Pectinase to 50 ml with Soln A. Store in an amber bottle and refrigerate.
R=2.0 ml Soln B+0.5 ml Soln A
Fill the cuvettes with 2.0 ml of Soln B with a 1 cc syringe.
Fill 8 serum vials with 5.0 ml of Soln C Stopper and crimp to effect a gas tight system.
(§1) Bubble 4×30 cc of the appropriate gas in T1G1 . . . 5 cuvettes. Refrigerate under 2×10 cc of the appropriate gas. Keep refrigerated at least 15 minutes before running.
Remove G1 . . . 5 serum vials from fridge. Sample Soln C with 1 cc syringes previously filled with the appropriate gas. Slide the syringes/needle through the silicone but not into the liquid layer, simultaneously push plungers into the liquid and push the plungers simultaneously, THEN IT WILL BE NECESSARY TO PULL AND PUSH PLUNGER FOUR TIMES TO EFFECT MIXING OF THE SUBSTRATE AND ENZYME IN THE CUVETTES, run timedrives.
(§2) Bubble 4×30 cc of the appropriate gas in T2G1 . . . 5 cuvettes. Refrigerate under 2×10 cc of the appropriate gas. Keep refrigerated at least 15 minutes before running.
(§3) Bubble 4×30 cc of the appropriate gas in T3G1 . . . 5 cuvettes. Refrigerate under 2×10 cc of the appropriate gas. Keep refrigerated at least 15 minutes before running.

[1] = system: Pectinesterase (EC 3.1.1.11); assay: Pectinesterase/p-Nitrophenyl acetate reaction gas run (spectrophotometric, 400 nm); assay type: biochemical, Orange Peel; conditions: maximum effect, percent change compared to air
Method: PECTINESTERASE (P-5400)/p-NITROPHENYL ACETATE (N-8130) GAS RUN PROTOCOL
PURPOSE: Effect of Air, Ne, Ar, Kr, Xe, N2 and 02 on Pectinesterase/p-Nitrophenyl acetate reaction at 10° C., 25° C. and 35° C. (one substrate concentration).
ENZYME: Pectinesterase P-5400
Unit definition: one unit will release 1 μequivalent of acid from pectin per min at pH 7.5 at 30° C.
SUBSTRATE: p-Nitrophenyl acetate N-8130
Soln A: 0.1 M Citric acid--Na2 HPO4 buffer, pH 7.5 25° C.
Soln B: 50 mM Methanolic p-Nitrophenyl acetate (N-8130)
Soln C: p-Nitrophenyl acetate in Soln A
Soln D: Pectinesterase (100 Units/ml) in Soln A
R=2.0 ml Soln C+0.5 ml Soln A
Fill the cuvettes with 2.0 ml of Soln C with a 1 cc syringe.
Fill 8 serum vials with 5.0 ml of Soln D. Stopper and crimp to effect a gas tight system.
as §1
Remove G1 . . . 5 serum vials from fridge. Sample Soln D with 1 cc syringes previously filled with the appropriate gas. Slide the syringes/needle through the silicone but not into the liquid layer, simultaneously push plungers into the liquid and push the plungers simultaneously, run timedrives.
as §2, §3

Pectinase % Rate Difference (Pectinase (EC 3.2.1.15); 25° C.) [%] | Pectinase % Rate Difference (Pectinase (EC 3.2.1.15); 35° C.) [%] | Pectinase % Yield Difference (Pectinase (EC 3.2.1.15); 35° C.) [%] | Pectinesterase % Rate Difference ([1]; 10° C.) [%] | Pectinesterase % Rate Difference ([1]; 25° C.) [%] | Pectinesterase % Yield Difference ([1]; 25° C.) [%] | Pectinesterase % Rate Difference ([1]; 35° C.) [%] | Pectinesterase % Yield Difference ([1]; 35° C.) [%] | Structure (SMILES)
6.4 | 18.3 | 8.0 | 5.0 | 17.7 | 2.1 | 0.8 | 0.70 | [Ar] [Ar, argon]
2.1 | 6.7 | 1.4 | 32.3 | 29.4 | 8.3 | 0.8 | 2.1 | [Kr] [Kr, krypton]
4.3 | 3.3 | 3.3 | 19.4 | 0.0 | 0.37 | 1.6 | 1.4 | [Ne] [Ne, neon]
0.0 | 15.0 | 7.0 | 29.0 | 2.0 | 0.70 | 3.3 | 0.0 | [Xe] [Xe, xenon]
